Laboratory results as given in patent US20100210649A1, “PYRIDAZINONES AND FURAN-CONTAINING COMPOUNDS” (Sloan-Kettering Institute for Cancer Research, priority 2006, published 2010).
Where “and” joins values, the source holds several entries; their conditions need not be identical. Equal entries are not always repeated. Where two headings read alike, the source gives them in different places.

Tests used:
H2122 = experiment: Dose response study (Alamar Blue), H2122; assay type: cell-based; conditions: Homo sapiens, read-out: IC50 H2122
Experimental: (§1) Dose response studies against 34 compounds from the pyridazinone and phenylfuran-carboxamide class were conducted. […] In addition, Tarceva was included in these dose response studies.
(§2) The dose response studies were done with the following standard procedure. First, the cells were counted and dispensed at 250 cells/well into 384-well microplates with compound. The cells were incubated for 48 hours at 37 C to complete treatment, and then alamar blue was added for an additional 48 hours. Finally, alamar blue reduction was measured and the data was loaded into ORIS, our data screening acquisition platform.

H358 = experiment: Non Small Cell Lung Cancer proliferation assay (Alamar Blue reduction), H358; assay type: cell-based; conditions: Homo sapiens
Experimental: These cells have a doubling time of 1-2 days. All cell types are adherent and grow in colonies. The cells should be kept at a density between 50,000 cells/mL -500,000 cells/mL to provide for optimum growth and adequate nutrition. The cell line should be maintained at 37° C. in a humidified atmosphere with 5% CO2 in a sterile cell culture incubator.
Non Small Cell Lung Cancer Proliferation Assay.
High Controls for this assay are made by treating Non Small Cell Lung Cancer cells with 5 ul of 10% DMSO. [Final concentration in this assay is 1% DMSO].
Important Note: All compounds for testing in this assay should be done at the final concentration of 1% DMSO.
After addition, the cells are placed in cell culture incubator at 37° C. for 48 hours for complete treatment.
After drug treatment, cytotoxicity is measured by Alamar Blue reduction.
The cells are incubated for 48 hours at 37° C. to complete the Alamar Blue reduction.
The final step in the assay is to measure the amount of Alamar Blue reduction. […] The Alamar Blue fluorescence is measured at an excitation of 530 nm and emission of 590 nm.
For the NSCLC project, the cell based assay was screened against a small molecule library of approximately 200,000 compounds. The compound library is stored in our automated robotic freezer (Biophile) at −20° C. in 100% DMSO. Compound freeze and thaw cycles are kept to a minimum. […] This assay was performed on a fully automated linear track robotic platform (CRS F3 Robot System, Thermo Electron Corp., Ontario, Canada) utilizing several integrated peripherals for plate handling, liquid dispensing, and readout detection. […] The microplates are then placed at 37° C. for 48 hours to complete treatment of cells with compounds. Next, 5 ul of alamar blue was added using a liquid dispenser (Flexprop Precision Dispenser, Perkin Elmer, Mass., USA) and incubated for 48 hours at 37° C. The alamar blue prompt fluorescence was measured on Victor V (Victor^3 V, Perkin Elmer, Mass., USA) and output data files were loaded into ORIS (Oncology Research Informatics System, MSKCC, NY, USA), a screening data acquisition and analysis platform.
as §2

H1975 = experiment: Non Small Cell Lung Cancer proliferation assay (Alamar Blue reduction), H1975; assay type: cell-based, human; conditions: for inhibition at 10 µM: NCI-H1975, primary screening; for inhibition at 10 µM / CONFIRMATION [%] 1975: 10 μM compound in 1% DMSO (v/v); for CONFIRMATION [%] 1975: percentage inhibition
In short: (§3)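 Compounds are tested at 1% DMSO final concentration against adherent NSCLC cells for 48 h at 37° C, with cytotoxicity measured by Alamar Blue reduction after a further 48 h incubation.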

H23 = experiment: Dose response study (Alamar Blue), H23; assay type: cell-based; conditions: Homo sapiens, read-out: IC50 H23
Experimental: as §1, §2

H3255 = experiment: Non Small Cell Lung Cancer proliferation assay (Alamar Blue reduction), H3255; assay type: cell-based, human; conditions: for inhibition at 10 µM: NCI-H3255, primary screening; for inhibition at 10 µM / CONFIRMATION [%] 3255: 10 μM compound in 1% DMSO (v/v); for CONFIRMATION [%] 3255: percentage inhibition
In short: as §3

H2030 = experiment: Non Small Cell Lung Cancer proliferation assay (Alamar Blue reduction), H2030; assay type: cell-based, human; conditions: for inhibition at 10 µM: NCI-H2030, primary screening; for inhibition at 10 µM / CONFIRMATION [%] 2030: 10 μM compound in 1% DMSO (v/v); for CONFIRMATION [%] 2030: percentage inhibition
In short: as §3

PC9 = experiment: Dose response study (Alamar Blue), PC9; assay type: cell-based; conditions: Homo sapiens, read-out: IC50 PC9
Experimental: as §1, §2

A549 = experiment: Dose response study (Alamar Blue), A549; assay type: cell-based; conditions: Homo sapiens, read-out: IC50 A549
Experimental: as §1, §2

H460 = experiment: Dose response study (Alamar Blue), H460; assay type: cell-based; conditions: Homo sapiens, read-out: IC50 H460
Experimental: as §1, §2

in vitro = conditions: human
Experimental: NHBE (normal human bronchiolar epithelial cells) are primary cells obtained from donor lungs and commercially available from Cambrex. The HPL1D (human peripheral lung epithelial) cell line has been immortalized with the SV40 large T-antigen. WI-38: human lung fibroblast cell line. HPLID, NHBE and WI-38 cells will serve as controls in the chemical screens. WT: wildtype; WT*: over-expressed wildtype.
Compounds were tested in dose response studies from […] to 5 nM against several non small cell lung cancer lines: H358, H827, H1118, H1650, H1734, H1975, H2030, and H3255, and were also studied in a 72 hour cytotoxicity assay against the NHBE and WI-38 cell lines.

[1] = NCI-H2122, H2122, 12 point doubling dilution 10 uM to 5 nM, 48 h treatment, alamar blue additional 48 h
[2] = NCI-H358, H358, 12 point doubling dilution 10 uM to 5 nM, 48 h treatment, alamar blue additional 48 h, read-out: IC50 H358
[3] = Homo sapiens, NCI-H1975, 48 h, H1975, 12 point doubling dilution 10 uM to 5 nM, 48 h treatment, alamar blue additional 48 h, read-out: IC50 H1975
[4] = Homo sapiens, NCI-H1975, phenylfuran-2-carboxamide SAR summary, read-out: IC50(uM) 1975
[5] = Homo sapiens, H1975, read-out: PRIMARY HTS [%] H1975 (percentage inhibition)
[6] = NCI-H23, H23, 12 point doubling dilution 10 uM to 5 nM, 48 h treatment, alamar blue additional 48 h
[7] = Homo sapiens, NCI-H3255, 48 h, H3255, 12 point doubling dilution 10 uM to 5 nM, 48 h treatment, alamar blue additional 48 h, read-out: IC50 H3255
[8] = Homo sapiens, NCI-H3255, phenylfuran-2-carboxamide SAR summary, read-out: IC50(uM) 3255
[9] = Homo sapiens, H3255, read-out: PRIMARY HTS [%] H3255 (percentage inhibition)
[10] = Homo sapiens, NCI-H2030, 48 h, H2030, 12 point doubling dilution 10 uM to 5 nM, 48 h treatment, alamar blue additional 48 h, read-out: IC50 H2030
[11] = Homo sapiens, NCI-H2030, phenylfuran-2-carboxamide SAR summary, read-out: IC50(uM) 2030
[12] = Homo sapiens, H2030, read-out: PRIMARY HTS [%] H2030 (percentage inhibition)
[13] = PC-9, PC9, 12 point doubling dilution 10 uM to 5 nM, 48 h treatment, alamar blue additional 48 h
[14] = A549, 12 point doubling dilution 10 uM to 5 nM, 48 h treatment, alamar blue additional 48 h
[15] = NCI-H460, H460, 12 point doubling dilution 10 uM to 5 nM, 48 h treatment, alamar blue additional 48 h
[16] = NCI-H358, 48 h, H358, 12 point doubling dilution 10 uM to 5 nM, 48 h treatment, alamar blue additional 48 h, read-out: IC50 H358
[17] = Homo sapiens, read-out: percentage inhibition H1975
[18] = Homo sapiens, read-out: percentage inhibition H3255
[19] = Homo sapiens, read-out: percentage inhibition H2030
[20] = Homo sapiens, NCI-H1975, dose response 10 M to 5 nM, IC50, read-out: Dose Response (uM) H1975
[21] = Homo sapiens, NCI-H3255, dose response 10 M to 5 nM, IC50, read-out: Dose Response (uM) H3255
[22] = Homo sapiens, NCI-H2030, dose response 10 M to 5 nM, IC50, read-out: Dose Response (uM) H2030

IC50 (H2122; [1]) [nM]	IC50 (H358; [2]) [µM]	Structure (SMILES)	IC50 (H1975; [3]) [µM]	IC50 (H1975; [4]) [µM]	inhibition at 10 µM (H1975; [5]) [%]	CONFIRMATION [%] 1975 (H1975)	IC50 (H3255; [7]) [µM]	IC50 (H3255; [8]) [µM]	inhibition at 10 µM (H3255; [9]) [%]	CONFIRMATION [%] 3255 (H3255)	IC50 (H2030; [10]) [µM]	IC50 (H2030; [11]) [µM]	inhibition at 10 µM (H2030; [12]) [%]	CONFIRMATION [%] 2030 (H2030) [%]	IC50 (H2122; NCI-H2122, 48 h) [nM]	IC50 (H358; [16]) [µM]	IC50 (H23; NCI-H23, 48 h) [nM]	IC50 (PC9; PC-9, 48 h) [nM]	IC50 (A549; A549, 48 h) [nM]	IC50 (H460; NCI-H460, 48 h) [nM]	also measured
4830	1.27	Cc1cccc(NC(=O)c2ccc([N+](=O)[O-])o2)c1 [compound 71762]	4.23	1.24	74	59% and 76%	2.41	0.95	100	122% and 97%	0.99	1.43	101	103	–	–	–	–	–	–	IC50 (H1975; phenylfuran-2-carboxamide SAR summary, read-out: IC50(uM) 1975): 1.23 µM; IC50 (H23; [6]): 830 nM; IC50 (H3255; phenylfuran-2-carboxamide SAR summary, read-out: IC50(uM) 3255): 1.01 µM; IC50 (H2030; phenylfuran-2-carboxamide SAR summary, read-out: IC50(uM) 2030): 1.46 µM; IC50 (PC9; [13]): 1890 nM; IC50 (A549; [14]): 1460 nM; IC50 (H460; [15]): 1850 nM
> 10000	7.17	O=C(Nc1ccc(F)c(Cl)c1)c1ccc([N+](=O)[O-])o1 [compound 87200]	> 10	0.44	67	95%	> 10	0.69	6	103%	8.51	1.01	23	107	–	–	–	–	–	–	IC50 (H23; [6]): 4550 nM; IC50 (PC9; [13]): 8670 nM; IC50 (A549; [14]): > 10000 nM; IC50 (H460; [15]): > 10000 nM
–	–	Cc1ccc(NC(=O)c2ccc([N+](=O)[O-])o2)cc1 [compound 98697]	4.57	1.09	70	70%	2.72	0.91	83	130%	1.18	1.06	62	101	5200	1.2	910	2170	1810	2200	–
–	–	O=C(Nc1ccc(Cl)cc1)c1ccc([N+](=O)[O-])o1 [compound 98698, 5-nitro-furan-2-carboxylic acid (4-chloro-phenyl)-amide]	2.63	0.63	74	57%	1.77	0.95	20	118%	0.91	1.12	17	98	3090	0.81	600	1580	1330	1620	–
–	–	Cc1cccc(-n2ncc(Cl)c(Cl)c2=O)c1 [compound 104122, 4,5-dichloro-2-m-tolyl-2H-pyridazin-3-one]	0.29	–	–	–	0.87	–	–	–	0.29	–	–	–	1150	0.41	210	650	1450	1560	inhibition at 10 µM (H1975; [17]): 104%; IC50 (H1975; dose response 10 M to 5 nM, IC50, read-out: Dose Response (uM) H1975): 0.14 µM; inhibition at 10 µM (H3255; [18]): 98%; IC50 (H3255; dose response 10 M to 5 nM, IC50, read-out: Dose Response (uM) H3255): 0.38 µM; inhibition at 10 µM (H2030; [19]): 101%
1500	0.32	O=c1c(Cl)c(Cl)cnn1-c1cccc(C(F)(F)F)c1 [compound 176729]	0.31	–	–	–	0.66	–	–	–	0.32	–	–	–	–	–	–	–	–	–	IC50 (H358; NCI-H358, read-out: Dose Response (uM) H358): 0.12 µM; IC50 (H1975; [20]): 0.16 µM; inhibition at 10 µM (H1975; [17]): 102%; IC50 (H23; [6]): 230 nM; IC50 at 72 h (in vitro; CytoTox (uM) NHBE): 2.76 µM; IC50 at 72 h (in vitro; CytoTox (uM) WI-38): 3.42 µM; IC50 (H3255; [21]): 0.73 µM; inhibition at 10 µM (H3255; [18]): 115%; IC50 (H2030; [22]): 0.34 µM; inhibition at 10 µM (H2030; [19]): -3%; IC50 (PC9; [13]): 900 nM; IC50 (A549; [14]): 1190 nM; IC50 (H460; [15]): 1260 nM
–	–	O=c1c(Cl)c(Cl)cnn1-c1ccccc1 [compound 257014]	0.36	–	–	–	1.5	–	–	–	0.41	–	–	–	1160	0.68	260	830	1680	2010	IC50 (H358; NCI-H358, dose response 10 M to 5 nM, IC50, read-out: Dose Response (uM) H358): 0.31 µM; IC50 (H1975; [20]): 0.29 µM; IC50 at 72 h (in vitro; CytoTox (uM) NHBE): 3.29 µM; IC50 at 72 h (in vitro; CytoTox (uM) WI-38): 6.93 µM; IC50 (H3255; [21]): 1.36 µM; IC50 (H2030; [22]): 0.55 µM
